The record followed here is PubChem BioAssay AID850 (SRMLSC, 2007).

The source made the active and inactive calls. The rule behind the calls is not given here. A value given as a limit tells only on which side of the number the result lay.

The term IC50 denotes the concentration at which inhibition is half-maximal. The term inhibition denotes the relative decrease from the control value, in per cent.

For assay [1], the system named is Saccharomyces cerevisiae growth inhibition, permissive control. Put plainly: concentration-response yeast growth inhibition under permissive conditions, counter-assay for yeast lifespan-shortening chemical project (AID 850).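 Note: growth read as optical density after one day of incubation.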
Experiment in assay [2]: as above
As to conditions: Saccharomyces cerevisiae growth inhibition, permissive control, measured here: maximum growth inhibition, stronger effect = higher value.

Turning to `Cc1ccc(-n2c(Cl)c(Cl)nc(Cl)c2=O)cc1`, the IC50 in assay [1] is 14 µM. Further, in assay [2] (at 50 µM), the inhibition amounted to 102%.

Consider `O=[N+]([O-])c1ccc(O)c2ncccc12`, for which, in assay [1], the IC50 is 0.483 µM. In addition, the inhibition in assay [2] (at 12.5 µM) is 99.4%.

In the case of `CC(C)(CNC(=S)NCCc1ccccc1)CNC(=S)NCCc1ccccc1`, the IC50 in assay [1] was > 100 µM (inactive). Also, in assay [2] (at 0.391 µM), the inhibition was 23.5%.

Consider `COc1ccc(-c2nnc3sc(C(C)N4C(=O)c5ccccc5C4=O)nn23)cc1` (stereo unspecified), for which the IC50 in assay [1] was > 100 µM (inactive). The inhibition in assay [2] (at 6.25 µM) was 14%.

`Cc1nnc(NC(=O)CSc2nnc(Cc3cccn3C)n2-c2ccccc2)s1`: the IC50 in assay [1] was > 100 µM (inactive). Besides, the inhibition in assay [2] (at 0.781 µM) is 11.8%.

As to `CCCn1c(Nc2nc3ccccc3n2C)nc2ccccc21`, in assay [1], the IC50 is 45.1 µM. In assay [2] (at 50 µM), the inhibition is 97.9%.

For the compound `CCn1ncc(C2=NOC(C(=O)Nc3c(C)n(C)n(-c4ccccc4)c3=O)C2)c1C` (stereo unspecified), the IC50 in assay [1] is > 100 µM (inactive). In addition, the inhibition in assay [2] (at 0.195 µM) came to 6.76%.

Consider `Cc1cc(N/N=C/c2ccc(Cl)cc2Cl)nc(NCc2ccccc2)n1`, for which the IC50 in assay [1] was 31.7 µM. Moreover, the inhibition in assay [2] (at 50 µM) came out at 99.2%.

Turning to `CCC(C)N1CC23C=CC(O2)C(C(=O)OC)C3C1=O` (stereo unspecified), in assay [1], the IC50 is > 100 µM (inactive). For the same compound, the inhibition in assay [2] (at 0.098 µM) stood at 10.6%.

As to `COc1ccccc1OCCN1CSC(=S)N(C)C1`, the IC50 in assay [1] was 17.2 µM. The inhibition in assay [2] (at 50 µM) was found to be 82.4%.

Turning to `O=c1[nH]c(Nc2ccccc2)cc2ccccc12`, the IC50 in assay [1] is > 100 µM (inactive). Besides, the inhibition in assay [2] (at 50 µM) worked out at 25.9%.

Take `COc1ccccc1C(=O)NNC(=S)NC(=O)c1ccco1`: the IC50 in assay [1] was > 100 µM (inactive). Moreover, the inhibition in assay [2] (at 50 µM) worked out at 29.3%.

Turning to `Cc1cc(-c2ccco2)c(C#N)c2nc3ccccc3n12`, the IC50 in assay [1] is 8.64 µM. For the same compound, the inhibition in assay [2] (at 50 µM) amounted to 77.8%.

Turning to `COc1ccccc1OCC(=O)n1cc(C(=O)c2cc(Cl)cc(Cl)c2O)cn1`, the IC50 in assay [1] was 4.72 µM. The inhibition in assay [2] (at 50 µM) was 100%.

With `OCc1ccnc2c(O)cccc12`, in assay [1], the IC50 was 50.6 µM. In addition, the inhibition in assay [2] (at 50 µM) was 44.1%.

Turning to `NNC(=O)c1cccc(COc2ccc3c(c2)CCC3)c1`, the IC50 in assay [1] was 33.3 µM. The inhibition in assay [2] (at 50 µM) stood at 71%.

`O=[N+]([O-])c1ccc(Cl)c(S(=O)(=O)N2CCCCCC2)c1`: in assay [1], the IC50 is 31.8 µM. Moreover, in assay [2] (at 50 µM), the inhibition was 58.1%.

In the case of `Clc1cc2nc3ccccn3c2cc1Cl`, the IC50 in assay [1] was > 100 µM (inactive). Also, the inhibition in assay [2] (at 50 µM) was found to be 16%.
